Measured values taken from PubChem BioAssay (NCI).
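Briefly, cells in 96-well plates were exposed to five compound concentrations for 48 h, and endpoints were estimated by linear interpolation. TGI: concentration producing complete growth inhibition.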

Key:
Test in all cases: inhibition of tumour cell growth, NCI panel, 48 h
HCT-116 colon = system: HCT-116 colon
SW-620 colon = system: SW-620 colon
UO-31 renal = system: UO-31 renal
SK-OV-3 ovarian = system: SK-OV-3 ovarian
COLO 205 colon = system: COLO 205 colon
SN12C renal = system: SN12C renal
HCC-2998 colon = system: HCC-2998 colon
SF-539 CNS = system: SF-539 CNS
MOLT-4 leukemia = system: MOLT-4 leukemia
SNB-75 CNS = system: SNB-75 CNS
786-0 renal = system: 786-0 renal
M14 melanoma = system: M14 melanoma
KM12 colon = system: KM12 colon
SF-268 CNS = system: SF-268 CNS
RPMI-8226 leukemia = system: RPMI-8226 leukemia
HCT-15 colon = system: HCT-15 colon
OVCAR-5 ovarian = system: OVCAR-5 ovarian
SR leukemia = system: SR leukemia
MDA-MB-435 = system: MDA-MB-435
T-47D breast = system: T-47D breast

Row | SMILES | TGI (HCT-116 colon) [µM] | TGI (SW-620 colon) [µM] | TGI (UO-31 renal) [µM] | TGI (SK-OV-3 ovarian) [µM] | TGI (COLO 205 colon) [µM] | TGI (SN12C renal) [µM] | TGI (HCC-2998 colon) [µM] | TGI (SF-539 CNS) [µM] | TGI (MOLT-4 leukemia) [µM] | TGI (SNB-75 CNS) [µM] | TGI (786-0 renal) [µM] | TGI (M14 melanoma) [µM] | TGI (KM12 colon) [µM] | TGI (SF-268 CNS) [µM] | TGI (RPMI-8226 leukemia) [µM] | TGI (HCT-15 colon) [µM] | TGI (OVCAR-5 ovarian) [µM] | TGI (SR leukemia) [µM] | TGI (MDA-MB-435) [µM] | TGI (T-47D breast) [µM]
1 | O=C1C=CC2(C=C1)CCNC1=C2C(=O)c2ccccc2C1=O | > 100 | > 100 | > 100 | > 100 | > 100 | > 100 | > 100 | > 100 | > 100 | > 100 | > 100 | > 100 | > 100 | > 100 | > 100 | > 100 | > 100 | – | – | –
2 | C=C/C(C)=C\CC1[C@](C)(O)CC[C@H]2C(C)(C)C(O)CC[C@]12C (some centres undefined) | > 100 | > 100 | > 100 | – | > 100 | > 100 | – | > 100 | > 100 | > 100 | > 100 | > 100 | > 100 | > 100 | > 100 | > 100 | > 100 | > 100 | > 100 | –
3 | C/C=C1\CC2C(=O)CCC2C2c3ccccc3OC12 (centres undefined) | > 100 | > 100 | > 100 | > 100 | > 100 | 0.821 | – | > 100 | > 100 | > 100 | > 100 | > 100 | > 100 | > 100 | > 100 | > 100 | > 100 | > 100 | > 100 | –
4 | COc1ccc(-c2c3c(n(C4OC(COC(C)=O)C(OC(C)=O)C(OC(C)=O)C4OC(C)=O)c(=S)c2C#N)CCC3)cc1 (centres undefined) | > 100 | > 100 | > 100 | > 100 | > 100 | > 100 | > 100 | > 100 | > 100 | > 100 | > 100 | > 100 | > 100 | > 100 | > 100 | > 100 | > 100 | > 100 | > 100 | –
5 | OCCCNc1ccnc2cc(Cl)ccc12 | > 100 | > 100 | > 100 | > 100 | > 100 | > 100 | > 100 | > 100 | > 100 | > 100 | > 100 | > 100 | > 100 | > 100 | > 100 | > 100 | > 100 | > 100 | – | –
6 | NC(=O)/C(=N\NC(=O)C[n+]1ccccc1)C1NC(=O)NC1=O (centres undefined) | > 100 | > 100 | > 100 | > 100 | > 100 | > 100 | > 100 | > 100 | > 100 | > 100 | > 100 | > 100 | > 100 | > 100 | > 100 | > 100 | > 100 | > 100 | – | –
7 | CCOC(=O)C(C(=O)OCC)c1ccc([N+](=O)[O-])o1 | 29 | 9.94 | 29 | > 100 | 10.4 | 32.2 | 31.3 | 35.9 | 19.8 | 37.3 | 13.4 | 26.6 | 33.9 | 70.3 | 23.6 | 33.6 | 32.1 | > 26.4 | – | –
8 | CC(=O)C1Cn2c(=O)c3cc4ccccc4cc3c(=O)n2C=C1C (centres undefined) | > 100 | > 100 | > 100 | > 100 | > 100 | > 100 | > 100 | > 100 | > 100 | > 100 | > 100 | > 100 | > 100 | > 100 | > 100 | > 100 | > 100 | > 100 | – | –
9 | Nc1ccc(Oc2ccc(C3(c4ccc(Oc5ccc(N)cc5)cc4)C4CC5CC(C4)CC3C5)cc2)cc1 | 13.7 | > 66.5 | 21.4 | – | > 100 | 21.9 | – | > 66.2 | > 100 | > 100 | 19.1 | 17 | 17.7 | > 95.3 | 17.4 | 35.7 | > 100 | 20.3 | 35.6 | –
10 | O=C(CCCN1CCC(Nc2ccccc2)(c2nnnn2C2CCCCC2)CC1)c1ccc(F)cc1 | 16.4 | > 100 | 12.8 | 26.1 | 4.77 | 41 | 32.1 | 5.66 | 46.2 | 21.9 | 15.9 | 3.98 | 21.5 | 9.25 | 25.1 | > 100 | 19.6 | > 100 | 19.4 | –
11 | C/C(CC(=O)Nc1cc(C)ccc1C)=N/N=C(N)N | > 100 | > 100 | > 100 | > 100 | > 100 | – | > 100 | > 100 | > 100 | > 100 | > 100 | > 100 | > 100 | > 100 | > 100 | – | > 100 | – | – | –
12 | O=C1NC(=O)C(C(=O)C(=O)Nc2ccc(Cl)cc2Cl)C(=O)N1 | > 100 | > 100 | > 100 | > 100 | > 100 | – | > 100 | – | > 100 | – | > 100 | > 100 | > 100 | – | > 100 | > 100 | > 100 | – | – | –
13 | CCOC(=O)C1C(C)C2(C#N)C(=N)OC1(C)C2(C#N)C#N (centres undefined) | > 100 | > 100 | > 100 | > 100 | > 100 | > 100 | – | > 100 | – | > 100 | > 100 | > 100 | > 100 | > 100 | 43.8 | > 100 | > 100 | – | > 100 | > 100
